Here are results for 28 compounds from ChEMBL document CHEMBL5308541, “MAIP: An Open-Source Tool to Enrich High-Throughput Screening Output and Identify Novel, Druglike Molecules with Antimalarial Activity” (ACS Med Chem Lett, 2023).

Series [1] has as its system Plasmodium falciparum. The experiment in a line: Hit confirmation in dose-response curve in NF54 nanoGlo assay, at 72h. The format is functional, organism-based, Erythrocyte. Details: timepoint 72 hour. Conditions: Plasmodium falciparum, NF54, Erythrocyte, 72 h.
In series [2] the test system is Plasmodium falciparum. The series can be described thus: Hit confirmation in dose-response curve in NF54 pLDH assay, at 72h. The format is functional, organism-based, Erythrocyte. Also on record: timepoint 72 hour. The settings on record: Plasmodium falciparum, NF54, Erythrocyte, 72 h.
The subject of series [3] is Plasmodium falciparum. The series can be described thus: Hit confirmation in dose-response curve in Dd2 pLDH assay, at 72h. The format is functional, organism-based, Erythrocyte. Details: timepoint 72 hour. Conditions: Plasmodium falciparum, Dd2, Erythrocyte, 72 h.
The test system of series [4] is Plasmodium falciparum. The experiment in a line: Hit confirmation in dose-response curve in NF54 nanoGlo assay, at 12h. The format is functional, organism-based, Erythrocyte. Details: timepoint 12 hour. The settings on record: Plasmodium falciparum, NF54, Erythrocyte, 12 h.
Series [5] is described as follows: Hit confirmation in dose-response curve in HepG2 cytotoxicity assay, at 72h. In kind it is toxicity, cell-based, Homo sapiens. Also on record: timepoint 72 hour. Conditions: human, HepG2 cells.

Where only a bound is given, the exact number is not on record here.

Take `COc1ccc2c(N3CC[C@H](CN4CCCC4)C3)ccnc2c1`: the IC50 – broadly, the point on the concentration scale where inhibition reaches its midpoint – in series [1] is 0.525 µM; in series [2], 0.589 µM; in series [3], 0.417 µM; in series [4], 0.794 µM. This compound returned an IC50 at 72 h in series [5] of more than 10 µM.
On the same counts, the results for `OC[C@H](CNCc1cc2ccc(F)cc2[nH]1)c1ccccc1Cl` are 2.34 µM, 3.72 µM, 3.31 µM, 3.98 µM and more than 10 µM.
The corresponding values for `Cc1cccc(Nc2ccnc(Nc3ccc(N4CCN(C)CC4)cc3)n2)c1` are 1.15 µM, 1.29 µM, 1.23 µM, more than 10 µM and more than 10 µM.
The corresponding values for `CN1CCN(CC2CCN(c3ccnc4ccccc34)CC2)CC1` are 1.35 µM, 1.35 µM, 1.2 µM, 1.91 µM and more than 10 µM.
As for `NCCCCc1c(-c2cccnc2)[nH]c2c(Cl)cc(Cl)cc12`, the IC50 in series [1] came to 4.47 µM; in series [2], 4.47 µM; in series [3], 4.07 µM; in series [4], 6.92 µM. Besides, the IC50 at 72 h in series [5] was 9.55 µM.
`Oc1ccc(C2=CCN(Cc3cccc4[nH]ccc34)CC2)cc1`: the IC50 in series [1] is 7.24 µM; in series [2] it was 10 µM; in series [3], 5.75 µM; in series [4], more than 10 µM. This compound also displayed an IC50 at 72 h in series [5] of more than 10 µM.
As for `FC(F)(F)c1ccc(-c2c(-c3ccccc3)ncn2Cc2ncn[nH]2)cc1`, the 50% inhibitory concentration (IC50) in series [1] is 6.92 µM; in series [2], more than 10 µM; in series [3], more than 10 µM; in series [4] it was 2.75 µM. Also, in series [5], the IC50 at 72 h is more than 10 µM.
As to `Oc1ccc(OC(F)(F)F)cc1-c1ccc2nccn2n1`, the IC50 came out at 3.16 µM in series [1], 7.76 µM in series [2], 6.31 µM in series [3] and 6.76 µM in series [4]. In addition, the IC50 at 72 h in series [5] is more than 10 µM.
`Clc1cccc(N2CC[C@H](CNC3CCN(Cc4ccco4)CC3)C2)c1`: the IC50 in series [1] was 3.47 µM; in series [2] it was 3.72 µM; in series [3], 3.16 µM; in series [4], 5.25 µM. The same compound gave an IC50 at 72 h in series [5] of more than 10 µM.
The corresponding values for `O=C1CN(C(=O)c2ccnc3ccccc23)CCN1Cc1ccccc1F` are 6.31 µM, 14.5 µM, more than 10 µM, more than 10 µM and more than 10 µM.
On the same counts, the results for `CN1CCC(N(C)C[C@H](Nc2ncnc3ccccc23)c2ccccc2)CC1` are 0.977 µM, 1.7 µM, 1.23 µM, 1.62 µM and more than 10 µM.
On the same counts, the results for `O=C(NCC1CC1)c1cc2c(OCc3ccc(Cl)cc3)cccc2[nH]1` are 3.89 µM, 10.2 µM, 6.46 µM, more than 10 µM and more than 10 µM.
As for `CCNc1nc(C)cc(Nc2ccc(NC(=O)Nc3ccc(F)cc3F)cc2)n1`, the IC50 in series [1] turned out to be 0.263 µM; in series [2] it was 0.389 µM; in series [3], 0.269 µM; in series [4] it was 0.562 µM. This compound also displayed an IC50 at 72 h in series [5] of 2.63 µM.
For `COc1cc2nc(-c3ccc(F)c4cccnc34)nc(N)c2cc1OC`, the half-maximal inhibitory concentration (IC50) in series [1] is 0.912 µM; in series [2], 1.1 µM; in series [3], 1.12 µM; in series [4], 1.55 µM. In series [5], this compound displayed an IC50 at 72 h of 1.02 µM.
The corresponding values for `Cn1cc(-c2cncc(C(=O)NC3CCN(c4cccc(F)c4)CC3)c2)cn1` are 3.24 µM, more than 10 µM, more than 10 µM, 1.41 µM and more than 10 µM.
On the same counts, the results for `Cc1ccc2[nH]c(CNC[C@@H](CO)C3CCC3)cc2c1C` are 2.45 µM, 4.57 µM, 3.63 µM, 4.47 µM and more than 10 µM.
The corresponding values for `O[C@@H](CNCc1cc2cc(Cl)c(Cl)cc2[nH]1)c1ccc(F)cc1` are 2.34 µM, 8.51 µM, 3.39 µM, 5.01 µM and more than 10 µM.
In the case of `CN1CCN(CCOc2ccccc2CN(C)Cc2cc3cc(F)ccc3[nH]2)CC1`, the IC50 was 4.07 µM in series [1], 6.17 µM in series [2], 5.62 µM in series [3] and 6.92 µM in series [4]. This compound also yielded an IC50 at 72 h in series [5] of 10.2 µM.
On the same counts, the results for `c1cncc(-c2ccc(CNC3CCN(Cc4cccs4)CC3)cc2)c1` are 2.88 µM, 3.72 µM, 2.69 µM, 7.94 µM and more than 10 µM.
On the same counts, the results for `Cc1ccc2c(-c3ccccc3CN3CCNCC3)cccc2n1` are 7.24 µM, more than 10 µM, more than 10 µM, more than 10 µM and more than 10 µM.
The corresponding values for `CCc1ccc2ncnc(NCCCN3CCN(CCO)CC3)c2c1` are 5.62 µM, 6.31 µM, 5.75 µM, 9.77 µM and more than 10 µM.
As for `COCCN1CC[C@H](CNC2CCN(c3ncc4ccc(F)cc4n3)CC2)C1`, the IC50 in series [1] turned out to be 3.09 µM; in series [2], 4.57 µM; in series [3] it was 4.07 µM; in series [4] it was 5.62 µM. This compound also showed an IC50 at 72 h in series [5] of more than 10 µM.
The corresponding values for `CN(Cc1cn(CC(N)=O)c2ccccc12)CC1CCN(CCc2ccc(F)cc2)CC1` are 4.07 µM, 4.17 µM, 4.37 µM, 7.41 µM and more than 10 µM.
The corresponding values for `CN(C[C@H](O)COc1cccc(CNCCCOc2cccnc2)c1)C1CCCCC1` are 5.13 µM, 6.17 µM, 6.92 µM, more than 10 µM and more than 10 µM.
The corresponding values for `COC(=O)c1cn(CCNc2ccnc3cc(Cl)ccc23)cc2c(O)nnc1-2` are 0.603 µM, 1.29 µM, 0.955 µM, 3.09 µM and more than 10 µM.
On to `CN1CCN(c2ccc(C(F)(F)F)cc2NCc2cnc[nH]2)CC1`, for which the IC50 was 4.07 µM in series [1], 4.68 µM in series [2], 4.27 µM in series [3] and 6.61 µM in series [4]. The IC50 at 72 h in series [5] was more than 10 µM.
The corresponding values for `O[C@H](COc1ccccc1CNCc1cc(-c2ccccc2)[nH]n1)CN1CCCCC1` are 3.02 µM, 3.98 µM, 3.89 µM, 7.76 µM and more than 10 µM.
The corresponding values for `CCN1CCC[C@H](Nc2cccc(-n3ccnc3)n2)C1` are 3.63 µM, 4.37 µM, 3.8 µM, 7.08 µM and more than 10 µM.
